Assay results as given in ChEMBL document CHEMBL1201862, “PubChem BioAssay data set” (2004).
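Results reflect a 48-hour exposure of cells in 96-well plates to compound at five concentrations. Abbreviation: GI50, concentration required for 50% inhibition of growth.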 Calls of active or inactive are those of the source. No stated cut-off is given here; in the data, active = GI50 up to about 1.1 µM and inactive = higher.

Key:
Test in all cases: growth of human tumour cells (NCI), 48 h
SNB-19 = tested on: SNB-19
TK-10 = tested on: TK-10
UO-31 = tested on: UO-31
NCI-H522 = tested on: NCI-H522
LOX IMVI = tested on: LOX IMVI
786-0 = tested on: 786-0
NCI-H23 = tested on: NCI-H23
Malme-3M = tested on: Malme-3M
OVCAR-3 = tested on: OVCAR-3
NCI-H460 = tested on: NCI-H460
ACHN = tested on: ACHN
LXFL 529 = tested on: LXFL 529
SK-MEL-5 = tested on: SK-MEL-5
KM-20L2 = tested on: KM-20L2
SN12C = tested on: SN12C
OVCAR-4 = tested on: OVCAR-4
HCT-15 = tested on: HCT-15
UACC-62 = tested on: UACC-62
HOP-18 = tested on: HOP-18
UACC-257 = tested on: UACC-257
RXF 393 = tested on: RXF 393
CCRF-CEM = tested on: CCRF-CEM
SNB-78 = tested on: SNB-78
HCC 2998 = tested on: HCC 2998
M14 = tested on: M14
HT-29 = tested on: HT-29
DMS-114 = tested on: DMS-114
SF-295 = tested on: SF-295
A498 = tested on: A498
HOP-92 = tested on: HOP-92
U-251 = tested on: U-251
OVCAR-8 = tested on: OVCAR-8
CAKI-1 = tested on: CAKI-1
KM12 = tested on: KM12
K562 = tested on: K562
HCT-116 = tested on: HCT-116
IGROV-1 = tested on: IGROV-1
SNB-75 = tested on: SNB-75
EKVX = tested on: EKVX
SR = tested on: SR
HOP-62 = tested on: HOP-62
SF-539 = tested on: SF-539
RPMI-8226 = tested on: RPMI-8226
SK-MEL-28 = tested on: SK-MEL-28
COLO 205 = tested on: COLO 205
SF-268 = tested on: SF-268
MOLT-4 = tested on: MOLT-4
DLD-1 = tested on: DLD-1
OVCAR-5 = tested on: OVCAR-5
SW-620 = tested on: SW-620
SK-MEL-2 = tested on: SK-MEL-2
HL-60 = tested on: HL-60
A549 = tested on: A549
NCI-H226 = tested on: NCI-H226
M19-MEL = tested on: M19-MEL
DMS-273 = tested on: DMS-273
SK-OV-3 = tested on: SK-OV-3

## O=C1[C@@H]2C(c3ccccc3[N+](=O)[O-])=NO[C@@H]2C(=O)N1c1ccc(Cc2ccc(N3C(=O)[C@H]4C(c5ccccc5[N+](=O)[O-])=NO[C@H]4C3=O)cc2)cc1
SNB-19
  GI50: > 100 µM (inactive)
TK-10
  GI50: > 100 µM (inactive)
UO-31
  GI50: > 100 µM (inactive)
NCI-H522
  GI50: > 100 µM (inactive)
LOX IMVI
  GI50: > 100 µM (inactive)
786-0
  GI50: > 100 µM (inactive)
NCI-H23
  GI50: > 100 µM (inactive)
Malme-3M
  GI50: > 100 µM (inactive)
OVCAR-3
  GI50: > 100 µM (inactive)
NCI-H460
  GI50: > 100 µM (inactive)
ACHN
  GI50: > 100 µM (inactive)
LXFL 529
  GI50: > 100 µM (inactive)
SK-MEL-5
  GI50: > 100 µM (inactive)
KM-20L2
  GI50: > 100 µM (inactive)
SN12C
  GI50: > 100 µM (inactive)
OVCAR-4
  GI50: > 100 µM (inactive)
HCT-15
  GI50: > 100 µM
UACC-62
  GI50: > 100 µM (inactive)
HOP-18
  GI50: > 100 µM (inactive)
UACC-257
  GI50: > 100 µM (inactive)
RXF 393
  GI50: > 100 µM (inactive)
CCRF-CEM
  GI50: > 100 µM (inactive)
SNB-78
  GI50: > 100 µM (inactive)
HCC 2998
  GI50: > 100 µM (inactive)
M14
  GI50: > 100 µM (inactive)
HT-29
  GI50: > 100 µM (inactive)
DMS-114
  GI50: > 100 µM (inactive)
SF-295
  GI50: > 100 µM (inactive)
A498
  GI50: > 100 µM (inactive)
HOP-92
  GI50: > 100 µM (inactive)
U-251
  GI50: > 100 µM (inactive)
OVCAR-8
  GI50: > 100 µM (inactive)
CAKI-1
  GI50: > 100 µM (inactive)
KM12
  GI50: > 100 µM (inactive)
K562
  GI50: > 100 µM (inactive)
HCT-116
  GI50: > 100 µM (inactive)
IGROV-1
  GI50: > 100 µM (inactive)
SNB-75
  GI50: > 100 µM (inactive)
EKVX
  GI50: > 100 µM (inactive)
SR
  GI50: > 100 µM (inactive)
HOP-62
  GI50: > 100 µM (inactive)
SF-539
  GI50: > 100 µM (inactive)
RPMI-8226
  GI50: > 100 µM (inactive)
SK-MEL-28
  GI50: > 100 µM (inactive)
COLO 205
  GI50: > 100 µM (inactive)
SF-268
  GI50: > 100 µM (inactive)
MOLT-4
  GI50: > 100 µM (inactive)
DLD-1
  GI50: > 100 µM (inactive)
OVCAR-5
  GI50: > 100 µM (inactive)
SW-620
  GI50: > 100 µM (inactive)

## CCOc1ccc(/N=C(/NC(=O)c2ccccc2)SC)cc1
SK-MEL-2
  GI50: > 100 µM (inactive)
SNB-19
  GI50: > 100 µM (inactive)
TK-10
  GI50: > 100 µM (inactive)
UO-31
  GI50: > 100 µM (inactive)
HL-60
  GI50: > 100 µM (inactive)
LOX IMVI
  GI50: > 100 µM (inactive)
786-0
  GI50: > 100 µM (inactive)
NCI-H23
  GI50: > 100 µM (inactive)
Malme-3M
  GI50: > 100 µM (inactive)
A549
  GI50: > 100 µM (inactive)
NCI-H226
  GI50: > 100 µM (inactive)
OVCAR-3
  GI50: > 100 µM (inactive)
NCI-H460
  GI50: > 100 µM (inactive)
M19-MEL
  GI50: > 100 µM (inactive)
ACHN
  GI50: > 100 µM (inactive)
LXFL 529
  GI50: > 100 µM (inactive)
SK-MEL-5
  GI50: > 100 µM (inactive)
KM-20L2
  GI50: > 100 µM (inactive)
SN12C
  GI50: > 100 µM (inactive)
OVCAR-4
  GI50: > 100 µM (inactive)
HCT-15
  GI50: > 100 µM
UACC-62
  GI50: > 100 µM (inactive)
DMS-273
  GI50: > 100 µM (inactive)
HOP-18
  GI50: > 100 µM (inactive)
UACC-257
  GI50: > 100 µM (inactive)
RXF 393
  GI50: > 100 µM (inactive)
CCRF-CEM
  GI50: 87.1 µM (inactive)
SNB-78
  GI50: > 100 µM (inactive)
HCC 2998
  GI50: > 100 µM (inactive)
M14
  GI50: > 100 µM (inactive)
HT-29
  GI50: > 100 µM (inactive)
DMS-114
  GI50: > 100 µM (inactive)
SF-295
  GI50: > 100 µM (inactive)
A498
  GI50: > 100 µM (inactive)
HOP-92
  GI50: > 100 µM (inactive)
U-251
  GI50: > 100 µM (inactive)
SK-OV-3
  GI50: > 100 µM (inactive)
OVCAR-8
  GI50: > 100 µM (inactive)
CAKI-1
  GI50: > 100 µM (inactive)
K562
  GI50: > 100 µM (inactive)
HCT-116
  GI50: > 100 µM (inactive)
IGROV-1
  GI50: > 100 µM (inactive)
SNB-75
  GI50: > 100 µM (inactive)
EKVX
  GI50: > 100 µM (inactive)
SR
  GI50: > 100 µM (inactive)
HOP-62
  GI50: > 100 µM (inactive)
SF-539
  GI50: > 100 µM (inactive)
RPMI-8226
  GI50: > 100 µM (inactive)
SK-MEL-28
  GI50: > 100 µM (inactive)
COLO 205
  GI50: > 100 µM (inactive)
SF-268
  GI50: > 100 µM (inactive)
MOLT-4
  GI50: > 100 µM (inactive)
DLD-1
  GI50: > 100 µM (inactive)
OVCAR-5
  GI50: > 100 µM (inactive)
SW-620
  GI50: 43.4 µM (inactive)
